Active and inactive are the calls of the source.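 How the source made its calls: active means maximal inhibition of USP17 at or above 30% in the confirmation dose-response, a value not among the printed readouts; inactive means the rest.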

In this experiment the target is Ubiquitin carboxyl-terminal hydrolase 17-like protein 5 (Homo sapiens) (UniProt A8MUK1). Description: ubiquitin-specific protease 17 inhibitors, concentration series, biochemical, verification of primary actives (AID 1645864). As to conditions: purified USP17, ubiquitin-rhodamine cleavage fluorescence, 3 h.
Sequence of Ubiquitin carboxyl-terminal hydrolase 17-like protein 5 (Homo sapiens) (A8MUK1 whole entry, looked up): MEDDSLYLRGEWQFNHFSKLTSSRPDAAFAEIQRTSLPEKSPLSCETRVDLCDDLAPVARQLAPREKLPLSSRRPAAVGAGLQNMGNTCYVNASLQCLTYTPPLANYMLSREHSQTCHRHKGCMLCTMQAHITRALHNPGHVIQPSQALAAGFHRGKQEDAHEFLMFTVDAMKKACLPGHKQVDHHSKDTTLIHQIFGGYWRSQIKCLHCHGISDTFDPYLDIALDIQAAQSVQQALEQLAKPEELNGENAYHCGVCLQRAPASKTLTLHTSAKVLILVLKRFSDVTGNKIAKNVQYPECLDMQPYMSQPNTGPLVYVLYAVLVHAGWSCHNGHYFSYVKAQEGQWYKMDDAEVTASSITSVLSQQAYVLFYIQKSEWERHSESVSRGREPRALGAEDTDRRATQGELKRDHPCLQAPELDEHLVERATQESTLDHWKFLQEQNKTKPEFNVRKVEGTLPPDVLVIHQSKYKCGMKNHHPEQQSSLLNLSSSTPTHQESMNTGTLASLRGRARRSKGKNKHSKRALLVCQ
In general, IC50 refers to the concentration needed to halve the response being measured. For the compound `O=C(NCCCN1CCc2ccccc2C1)c1cc2c(s1)CS(=O)(=O)C2`, the IC50 is > 5 µM (inactive).

As to `COc1cc(C)c2c(=O)c3c(oc2c1)C(=O)c1c(O)c(OC)cc(O)c1C3=O`, the IC50 is 0.609 µM.

For `CC(C)c1cc(Nc2cccc(F)c2)n2nc(-c3cccnc3)nc2n1`, the IC50 was 7.65 µM.

For `Cc1nn(C)c2c1[C@@H](c1ccc(F)cc1)[C@H](NC(=O)c1ccccc1)C(=O)N2`, the IC50 is > 50 µM (inactive).

As for `COc1cc(NC(=O)c2ccc3c(c2)OCO3)ccc1-c1cc2ccccc2oc1=O`, the concentration for half-maximal inhibition (IC50) is 0.678 µM.

As to `O=S(=O)(c1cccc2cccnc12)N(CCc1ccccc1)C1CCN(CCc2ccc(Cl)cc2)CC1`, the IC50 is > 50 µM (inactive).

As to `COC(=O)c1ccc2c(=O)n(CCCCCC(=O)NCc3cccc(Cl)c3)c(=O)[nH]c2c1`, the IC50 was 2.36 µM.

Turning to `O=C(CSc1ncnc2c1oc1ccccc12)Nc1ccc2c(c1)OCCO2`, the concentration for half-maximal inhibition (IC50) is 29 µM.

`Cc1ccc(NC(=O)/C=C/c2cccc(C(F)(F)F)c2)c(O)c1`: the IC50 is 8.3 µM.

With `O=c1[nH]c(C2CCN(S(=O)(=O)c3ccc(S(=O)(=O)NC4CCCC4)cc3)CC2)nc2c1nnn2Cc1cccc(Cl)c1`, the IC50 is > 50 µM (inactive).

In the case of `Cc1cc(C)c2cc3c(nc2c1)OC(=O)N(Cc1ccco1)C3`, the half-inhibitory concentration (IC50) was 30.9 µM.

As for `Cc1ccc2nc(NC(=O)CSc3nnc(-c4ccncc4)n3C3CC3)sc2c1`, the IC50 is 3.82 µM.

Turning to `Nc1ccc(NC(=O)c2cc3c(s2)CCC3)cc1[N+](=O)[O-]`, the half-maximal inhibitory concentration (IC50) was 24.6 µM.

Turning to `CCOCCCn1c(SCC(=O)Nc2ccccc2C(F)(F)F)nc2ccccc2c1=O`, the concentration for half-maximal inhibition (IC50) was 20.9 µM.

As to `O=C(COC(=O)c1n[nH]c2ccccc12)Nc1ccc(N2CCCCC2)cc1`, the IC50 was 25.9 µM.

As for `N#Cc1cn(CC(=O)N2CCc3ccccc32)c2ccccc12`, the IC50 is 47.4 µM.

As to `Cc1ccc(Cl)cc1NC(=O)c1cc(-c2ccccn2)n[nH]1`, the IC50 is 7.13 µM.

`O=C(CCCCn1c(=O)[nH]c2ccccc2c1=O)Nc1cccc(Cl)c1`: the IC50 was 19.4 µM.

With `Cc1ccc(C)c(Cn2nnc3c(=O)[nH]c(C4CCN(S(=O)(=O)c5ccc(S(=O)(=O)NC6CC6)cc5)CC4)nc32)c1`, the IC50 was 24.4 µM.

Turning to `O=c1ncn(Cc2ccc3c(c2)OCO3)cc1-c1ncc(C(F)(F)F)cc1Cl`, the half-maximal inhibitory concentration (IC50) was 43.9 µM.

With `CC(=O)N1CCc2cc(S(=O)(=O)NC(Cc3ccccc3)C(=O)Nc3cccc(Cl)c3C)ccc21` (stereo not drawn), the IC50 was 12.9 µM.

Take `Cc1cc(C)c(NC(=O)Cn2c(=O)n(CCC(=O)NCc3ccc4c(c3)OCO4)c(=O)c3sccc32)c(C)c1`: the IC50 is 3.02 µM.

With `O=C(CSc1ncnc2c1oc1ccccc12)NC1CCCC1`, the IC50 is 26 µM.

With `O=C(CC1C(=O)Nc2nc(-c3ccccc3)nn21)Nc1cccc2ccccc12` (stereo not drawn), the IC50 is 12.2 µM.

As to `c1ccc(Cc2nn3c(-c4cccnc4)nnc3c3ccccc23)cc1`, the IC50 is 0.42 µM.

`Cc1cc(C(F)(F)F)n2nc(C3CCN(C(=O)c4cnn(C)c4C)C3)cc2n1` (stereo not drawn): the half-maximal inhibitory concentration (IC50) is 30.2 µM.

Take `Cc1cc(=O)c2c(O)oc(O)c3c(O)cc(=O)c1c32`: the concentration for half-maximal inhibition (IC50) is 24.4 µM.

With `Cc1cc(C(=O)Nc2cc(C)n(Cc3ccc(Cl)cc3)n2)no1`, the IC50 was > 50 µM (inactive).

As for `O=c1c2cnc(N3CCOCC3)nc2ccn1CCc1ccccc1`, the IC50 is 18 µM.

Consider `O=C(Nc1ccc(Oc2cccc3cccnc23)cc1)c1cccs1`, for which the IC50 was > 50 µM (inactive).

With `O=C(NCC(c1cccnc1)N1CCc2ccccc2C1)C(=O)Nc1ccc2c(c1)OCO2` (stereo not drawn), the concentration for half-maximal inhibition (IC50) is 30.5 µM.

`O=C(Nc1ccc(F)c(Cl)c1)c1ccc(N2CCCCS2(=O)=O)cc1Cl`: the IC50 is > 50 µM (inactive).

For the compound `Cc1ccc(NC(=O)c2ccc3c(c2)N(S(C)(=O)=O)CC3)cc1`, the half-inhibitory concentration (IC50) is 38.3 µM.

Regarding `Cc1cccc(NC(=O)Cn2cnc(-c3noc(-c4ccccc4)n3)c2)c1C`, the IC50 is 1.35 µM.

With `Cn1c(=O)c(C(=O)CN2CCN(c3ccc(O)cc3)CC2)c(N)n(Cc2ccccc2)c1=O`, the IC50 is 39.5 µM.

For `COc1ccc(NC(=O)CSc2nnc(Cc3cccc4ccccc34)n2C)cc1`, the IC50 was > 50 µM (inactive).

As to `Cc1ccccc1Cc1nc(-c2ccc(=O)[nH]c2)no1`, the IC50 is > 50 µM (inactive).

In the case of `CC(=O)NCc1nc(-c2ccc3c(c2)nc(C)c(=O)n3C2CCCC2)no1`, the IC50 is > 50 µM (inactive).

For the compound `CC(C)Cn1cc(OC(=O)c2ccc(F)cc2)c2c1nc(-c1ccc(F)cc1)n1c3ccccc3nc21`, the IC50 is > 50 µM (inactive).

Take `COc1ccc(C2SCC(=O)Nc3c2c(=O)[nH]n3C2CCCCCC2)cc1` (stereo not drawn): the half-inhibitory concentration (IC50) was 33.5 µM.

With `CC(C)c1ccc(NC(=O)c2cc3ncc(Br)cn3n2)cc1`, the IC50 was 1.73 µM.

`CSc1ccc(CNCc2c(C(=O)O)n(Cc3ccccc3)c3cc(C)ccc23)cc1`: the IC50 is > 50 µM (inactive).

For `CCOc1ccc2nc(NC(=O)C3CCN(S(=O)(=O)c4ccc5c(c4)CC(C)N5C(C)=O)CC3)sc2c1` (stereo not drawn), the IC50 was > 50 µM (inactive).

`COc1cccc(/C=C/C(=O)Nc2ccc(N3CCOCC3)cc2)c1OC`: the IC50 is > 50 µM (inactive).

As for `COc1cccc(NC(=O)C2C3C=CC4(O3)C2C(=O)N(CCc2ccccc2Cl)C4C(=O)NC2CCCCC2)c1` (stereo not drawn), the half-inhibitory concentration (IC50) was 28.2 µM.

Take `CN(C)Cc1ccc(C(=O)Nc2ccc(-c3nccs3)cc2)cc1`: the IC50 is > 50 µM (inactive).

In the case of `Cc1ccc(Cn2cc(-c3noc(-c4ccc[nH]4)n3)nn2)cc1`, the IC50 is 21.2 µM.

`CCC(C)c1ccc(-c2csc(Cn3c(CN4CCN(C)CC4)nc4ccccc4c3=O)n2)cc1` (stereo not drawn): the concentration for half-maximal inhibition (IC50) was 3.29 µM.

On to `CCN1C[C@@H]2C[C@]2(c2ccccc2OC)C(=O)c2ncccc21`, for which the IC50 was > 50 µM (inactive).

Turning to `Cc1ccc(S(=O)(=O)N(C)C)cc1NC(=O)Cc1ccc(Cl)c(Cl)c1`, the IC50 is > 50 µM (inactive).

For the compound `O=C(Cn1c(=O)n(-c2ccccc2)c(=O)c2ccc(C(=O)NCc3ccc4c(c3)OCO4)cc21)NCCC1=CCCCC1`, the half-maximal inhibitory concentration (IC50) is 16.9 µM.

As for `Cc1sc2ccn(C)c(=O)c2c1C(=O)NC1CCCC1`, the half-maximal inhibitory concentration (IC50) was 3.48 µM.

In the case of `COc1ccc(NC(=O)CC(=O)c2ccc([N+](=O)[O-])cc2)cc1S(=O)(=O)Nc1ccc(Cl)cc1`, the IC50 was 24.5 µM.

For the compound `Nc1ncnc2c1ncn2[C@@H]1O[C@H](CO)C[C@@H]1O`, the IC50 is 34.3 µM.

Take `CC(=O)c1cccc(NC(=O)c2ccc(-c3csc(C)n3)cc2)c1`: the IC50 is > 50 µM (inactive).

As for `O=C(Nc1cccc(Cl)c1)N1CCN(c2cc(C(F)(F)F)ccn2)CC1`, the half-inhibitory concentration (IC50) was 12.3 µM.

As to `CCOc1ccc(NC(=O)COc2cccc3c2CCN(CC)C3=O)cc1`, the IC50 was > 50 µM (inactive).

For `Cc1nc2cc(NC(=O)C3CN(C(=O)c4cnccn4)C3)ccc2s1`, the IC50 was > 50 µM (inactive).

On to `O=C(CCc1nnc2n(Cc3ccc(F)cc3)c(=O)c3ccccc3n12)N1CCN(c2ccccn2)CC1`, for which the IC50 is > 50 µM (inactive).

On to `COc1ccc(OC)c(C2CC(=O)Nc3n[nH]c(-c4ccccc4)c32)c1` (stereo not drawn), for which the half-inhibitory concentration (IC50) is 24.6 µM.

For `O=C1COc2ccc(NC(=O)c3cnn(Cc4ccccc4)c3)cc2N1`, the half-maximal inhibitory concentration (IC50) was 39.4 µM.

As for `Cc1ccc(C)c(NS(=O)(=O)c2cc(-c3cnc(C4CC4)o3)ccc2C)c1`, the half-maximal inhibitory concentration (IC50) is 42.7 µM.

As to `COc1cnc(-c2ccccn2)nc1Sc1ccc(C)cc1`, the IC50 is > 50 µM (inactive).

The values are drawn from PubChem BioAssay AID1645864 (Buhrlage Lab, Dana-Farber Cancer Institute and Novartis …, 2021).
